Results as given in patent US20250136544A1, “8-((4-HYDROXY-3-METHYLPHENYL)DIAZENYL)NAPHTHALENE-1,3-DISULFONIC ACID AS AN ANTIMICROBIAL COMPOUND” (KING FAISAL UNIVERSITY, priority 2023, published 2025).

Assay: DPPH radical scavenging antioxidant test
Format: biochemical
Settings: 517 nm; for Inhibition (radical scavenging inhibition): 0.2 mL DPPH (0.75 mM), compound 3 μM in ethanol, 30 minutes in the dark
Method: The antioxidant properties of the 8-((4-hydroxyphenyl)diazenyl)naphthalene-1,3-disulfonic acid compound were studied by adding 0.2 mL DPPH (0.75 mM)) to 8-((4-hydroxyphenyl)diazenyl)naphthalene-1,3-disulfonic acid (III) (3 μM) in ethanol. After 30 minutes of incubation in the dark, the absorbance was read against a blank at 517 nm. Ascorbic acid (vitamin C) was used as standard antioxidants (positive control). A blank sample was prepared by 0.2 ml of DPPH in 3 mL ethanol. A negative control sample was run using ethanol instead of the sample. The radical scavenging inhibition was calculated using the following equation: […]
The antioxidant activity for the synthesized compound is listed in Table 1, using Vitamin C as a reference.

| SMILES | Inhibition (radical scavenging inhibition) [%] | antioxidant potential in DPPH test compared to vitamin C (in words) (DPPH in vitro test, vitamin C as positive control) |
| --- | --- | --- |
| O=C1O[C@H]([C@@H](O)CO)C(O)=C1O [vit c, Ascorbic acid, reference compound] | 74 |  |
| O=S(=O)(O)c1cc(S(=O)(=O)O)c2c(/N=N/c3ccc(O)cc3)cccc2c1 [Product III, 8-((4-hydroxyphenyl)diazenyl)naphthalene-1,3-disulfonic acid] | 52 | high potential as an antioxidant compared to vitamin C |
